Results published in patent publication US4020111A, “Propynyloxy alkyl arene insecticides” (priority 1975, dated 1977).

Assays:
[1] = test system: IN/WHO strain house flies; assay: topical application test, percent kill after 24 hours, IN/WHO strain; type: in vivo, house fly (susceptible IN/WHO strain)
Method in brief: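 Susceptible female IN/WHO house flies, 3–5 days old, CO2-anesthetized, received synergist plus insecticide in acetone (1.0 μL) on the thorax; doses in μg/fly. Flies held 10 per dish, 3–5 dishes/treatment, with skim milk; mortality (percent kill) read at 24 h.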

[2] = test system: Rutgers A strain house flies; assay: topical application test, percent kill after 24 hours, Rutgers A strain; type: in vivo, house fly (resistant Rutgers A strain)
Method: In Table IX, and in the tables following it, the doses of topically applied insecticides and of synergists unless otherwise noted are expressed as micrograms per fly (μg/fly).
The synergistic effect of O-(2-propynyl) oximes with mobam was determined from topical application tests on susceptible, female, IN/WHO strain house flies and from tests on resistant, female, Rutgers A strain house flies. The synergist and insecticide were dissolved in ACS Grade acetone in such quantities that a 1.0μ liter volume applied to the thorax of 3-to-5 day old CO2 -anesthetized female adult house flies contained the desired dosage. After being treated, the flies were confined, 10 to a plaster petri dish, with 3-5 dishes/treatment, and held for 24-hr. observation of mortality. Reconstituted skim milk on cotton dental wicks was provided during the holding period. The percent kills after 24 hours are shown in Table X for the IN/WHO strain and Table XI for the Rutgers A strain.
The synergistic effect of benzyl 2-propynyl ethers with mobam was determined from topical application tests on IN/WHO and Rutgers A strain houseflies, following the procedure of Example 5. The percent kills after 24 hours are shown in Table XIV for the IN/WHO strain and in Table XV for the Rutgers A strain.
The synergistic effect with Diazinon of compounds I-B, I-D, I-F, I-G, I-H and I-I, identified in Tables I and Ia, was determined from topical application tests on IN/WHO strain houseflies and on Rutgers A strain houseflies by the procedure of Example 5. The percent kills after 24 hours are shown in Table XXV for the IN/WHO strain and Table XXVI for the Rutgers A strain.
The synergistic effect with GS 13005 of compounds I-A, I-B, I-D, I-E, I-F, I-G and I-I was determined from topical application tests to IN/WHO strain, Rutgers A strain and polyvalent CH strain houseflies using the procedures of Example 5. The percent kills of the IN/WHO strain flies after 24 hours are shown in Table XXVIII; of the Rutgers A strain, in Table XXIX; and of the polyvalent CH strain, in Table XXX. The doses of insecticide alone to the CH strain files caused 10-40% mortality.
The synergistic effect with Diazinon and GS 13005 of various of the benzyl 2-propynyl ethers identified in Tables II and IIa was determined by topical application tests on IN/WHO strain, and Rutgers A strain and polyvalent, resistant, CH strain houseflies using the procedures of Example 5. The percent kills after 24 hours of IN/WHO strain flies are shown in Table XXXI; of Rutgers A strain flies, in Table XXXII; and of CH strain flies, in Table XXXIII. The doses of insecticide alone to the CH strain flies caused 10-40% mortality.
The synergistic effect on IN/WHO strain flies and Rutgers A strain flies of compound IV-C with GS 13005 and with Diazinon was determined by the topical application procedure of Example 5. The percent kills of IN/WHO strain flies after 24 hours are shown in Tables XXXVI and XXXVII; the percent kills of Rutgers A strain flies are shown in Tables XXXVIII and XXXIX.

CH strain flies = assay: spray application of pyrethrum, average percent knockdown with time; type: in vivo, housefly (CH strain); details: pyrethrum 100 + synergist 100 mg/cc
Method: The average percent knockdown of CH strain flies, as a function of time, resulting from spray application of pyrethrum, alone and with synergists, are given in Table XXXXIII. Duplicate tests were performed using 50 CH strain houseflies per test. Test solutions of 100 mg and 200mg of pyrethrum per cc of acetone, 200 mg of synergist per cc of acetone, and a mixture of 100 mg of pyrethrum and 100 mg of synergist per cc of acetone were prepared. The fifty CH strain houseflies were put in a 40 liter spray chamber and 1 cc of the test solution was sprayed into the test chamber with a spray pistol. The synergists alone at 200 mg/cc caused no knockdown.

mice = assay: extension of Secobarbital sleeping time by synergists; type: in vivo, Swiss albino white male mice; details: Secobarbital 37 mg/K; for Relative Sleeping Time: treated/control
Method in brief: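 Swiss albino male mice (~38 days, 25-30 g) given synergist at 74.0 or 110.0 mg/kg in corn oil 1 h before Secobarbital 37.0 mg/kg or Noludar 110.0 mg/kg in water. Sleeping time measured from drug dosing to righting-reflex recovery; relative sleeping time = treated ÷ drug-only control.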

[3] = Mobam 0.10 + synergist 0.50 μg/fly
[4] = Mobam 0.15 + synergist 0.75 μg/fly
[5] = Diazinon 0.03 + synergist 0.15 μg/fly
[6] = Mobam 0.20 + synergist 1 μg/fly
[7] = Mobam 0.30 + synergist 1.5 μg/fly
[8] = Mobam 0.05 + synergist 0.25 μg/fly
[9] = Mobam 0.50 μg/fly, synergist/insecticide 5/1
[10] = Mobam 1.0 μg/fly, synergist/insecticide 1/1
[11] = Mobam 1.0 μg/fly, synergist/insecticide 2/1
[12] = Mobam 1.0 μg/fly, synergist/insecticide 5/1

Compound: C#CCON=C(C)c1ccc(Cl)cc1 [I-D]
- percent kill after 24 hours [1, 3]: 20%
- percent kill after 24 hours [2, 4]: 19%
- percent kill after 24 hours ([2]; Mobam 0.60 + synergist 3.0 μg/fly): 100%
- average percent knockdown (CH strain flies; 5 min): 6%
- average percent knockdown (CH strain flies; 10 min): 15%
- average percent knockdown (CH strain flies; 15 min): 26%
- average percent knockdown (CH strain flies; 20 min): 39%
- average percent knockdown (CH strain flies; 25 min): 52%
- average percent knockdown (CH strain flies; 30 min): 60%
- average percent knockdown (CH strain flies; 40 min): 86%
- average percent knockdown (CH strain flies; 50 min): 87%
- average percent knockdown (CH strain flies; 60 min): 88%
- Mean Sleeping Time (mice; synergist 74 mg/K): 62 min
- Relative Sleeping Time (mice; synergist 74 mg/K): 1.9
- Mean Sleeping Time (mice; synergist 110 mg/K): 56 min
- Relative Sleeping Time (mice; synergist 110 mg/K): 1.7

Compound: C#CCON=C(C)c1ccc2ccccc2c1 [I-F]
- percent kill after 24 hours [1, 5]: 24%
- percent kill after 24 hours ([1]; GS 13005 0.10 + synergist 0.50 μg/fly): 45%
- percent kill after 24 hours [1, 6]: 47%
- percent kill after 24 hours ([2]; Diazinon 3.0 + synergist 3.0 μg/fly): 95%
- percent kill after 24 hours ([2]; GS 13005 1.0 + synergist 5.0 μg/fly): 95%
- percent kill after 24 hours [2, 7]: 38%
- Mean Sleeping Time (mice; synergist 74 mg/K): 32 min
- Relative Sleeping Time (mice; synergist 74 mg/K): 1.1
- Mean Sleeping Time (mice; synergist 110 mg/K): 70 min
- Relative Sleeping Time (mice; synergist 110 mg/K): 2.2

Compound: C#CCON=Cc1ccc(Cl)cc1Cl [I-G]
- percent kill after 24 hours ([1]; Diazinon 0.02 + synergist 0.10 μg/fly): 40%
- percent kill after 24 hours ([2]; Diazinon 3.0 + synergist 15 μg/fly): 100%
- average percent knockdown (CH strain flies; 5 min): 7%
- average percent knockdown (CH strain flies; 10 min): 12%
- average percent knockdown (CH strain flies; 15 min): 31%
- average percent knockdown (CH strain flies; 20 min): 36%
- average percent knockdown (CH strain flies; 25 min): 59%
- average percent knockdown (CH strain flies; 30 min): 66%
- average percent knockdown (CH strain flies; 40 min): 89%
- average percent knockdown (CH strain flies; 50 min): 93%
- average percent knockdown (CH strain flies; 60 min): 94%
- Mean Sleeping Time (mice; synergist 74 mg/K): 27 min
- Relative Sleeping Time (mice; synergist 74 mg/K): 1.0
- Mean Sleeping Time (mice; synergist 110 mg/K): 55 min
- Relative Sleeping Time (mice; synergist 110 mg/K): 1.7

Compound: C#CCOCc1ccc(Cl)c(Cl)c1 [II-C]
- percent kill after 24 hours [1, 5]: 25%
- percent kill after 24 hours [1, 8]: 4%
- percent kill after 24 hours [1, 3]: 27%
- percent kill after 24 hours [2, 7]: 20%
- Mean Sleeping Time (mice; synergist 110 mg/K): 33 min
- Relative Sleeping Time (mice; synergist 110 mg/K): 1.0

Compound: C#CCOCc1ccc(Cl)c(Cl)c1Cl [II-D]
- percent kill after 24 hours [1, 5]: 40%
- percent mortality 24 hours ([1]; Mobam 0.13 μg/fly, synergist/insecticide 1/1): 17%
- percent mortality 24 hours ([1]; Mobam 0.25 μg/fly, synergist/insecticide 0.5/1): 30%
- percent mortality 24 hours ([1]; Mobam 0.50 μg/fly, synergist/insecticide 1/1): 100%
- percent mortality 24 hours [1, 9]: 100%
- percent mortality 24 hours [1, 10]: 100%
- percent mortality 24 hours [1, 11]: 100%
- percent mortality 24 hours [1, 12]: 100%
- percent kill after 24 hours [1, 8]: 10%
- percent kill after 24 hours [1, 6]: 100%
- Mean Sleeping Time (mice; synergist 110 mg/K): 60 min
- Relative Sleeping Time (mice; synergist 110 mg/K): 1.2

Compound: C#CCOCc1c(Cl)ccc(Cl)c1Cl [II-E]
- percent mortality 24 hours [1, 9]: 100%
- percent mortality 24 hours ([1]; Mobam 1.0 μg/fly, synergist/insecticide 0.5/1): 100%
- percent mortality 24 hours [1, 10]: 100%
- percent mortality 24 hours [1, 11]: 100%
- percent mortality 24 hours [1, 12]: 100%
- percent kill after 24 hours [1, 3]: 33%
- percent kill after 24 hours [1, 6]: 100%
- percent kill after 24 hours ([1]; synergist alone 1 μg/fly): 0%
- percent kill after 24 hours [2, 4]: 17%
- percent kill after 24 hours ([2]; synergist alone 7.5 μg/fly): 0%
- average percent knockdown (CH strain flies; 5 min): 5%
- average percent knockdown (CH strain flies; 10 min): 9%
- average percent knockdown (CH strain flies; 15 min): 17%
- average percent knockdown (CH strain flies; 20 min): 44%
- average percent knockdown (CH strain flies; 25 min): 55%
- average percent knockdown (CH strain flies; 30 min): 59%
- average percent knockdown (CH strain flies; 40 min): 77%
- average percent knockdown (CH strain flies; 50 min): 93%
- average percent knockdown (CH strain flies; 60 min): 95%
- Mean Sleeping Time (mice; synergist 110 mg/K): 44 min
- Relative Sleeping Time (mice; synergist 110 mg/K): 1.4

Compound: C#CCOCc1c(Cl)cccc1[N+](=O)[O-] [II-K]
- 24 hour percent mortality ([1]; Bidrin 0.063 μg/fly with five parts synergist): 0%
- 24 hour percent mortality ([1]; Pyrolan 0.13 μg/fly with five parts synergist): 40%
- Mean Sleeping Time (mice; synergist 74 mg/K): 48 min
- Relative Sleeping Time (mice; synergist 74 mg/K): 1.5
- Mean Sleeping Time (mice; synergist 110 mg/K): 44 min
- Relative Sleeping Time (mice; synergist 110 mg/K): 2
